System: syngenic and metallothionein-SSAT mice
Assay: Hepatic, pancreatic and renal polyamine concentration in syngenic and metallothionein-SSAT mice after analogue
Type: in vivo, mouse
Conditions: 24 h before sacrifice
Description: α-methylspermidine, Bis-α-methylspermine and α-methylspermine were administered in saline. […] The data are expressed as means ±S.D. For statistical analysis, the two-tailed Student's t test was used.

[1] = Tg (transgenic) mice, 12.5 mg/kg
[2] = Tg (transgenic) mice, 37.5 mg/kg

CC(N)CCNCCCCNCCC(C)N (stereo not drawn) [bis-α-methylspermine, 1,12-dimethylspermine]
pancreatic polyamine concentration, N^8-Acetylspermidine (Sg (syngenic) mice, 50 mg/kg): 82.23 pmoles/mg tissue wet weight | pancreatic polyamine concentration, Putrescine (Sg (syngenic) mice, 50 mg/kg): 297.48 ± 123.94^++ pmoles/mg tissue wet weight | pancreatic polyamine concentration, Spermidine (Sg (syngenic) mice, 50 mg/kg): 5613.06 ± 608.55 ^++ pmoles/mg tissue wet weight | pancreatic polyamine concentration, Spermine (Sg (syngenic) mice, 50 mg/kg): 561.50 ± 77.66 ^++ pmoles/mg tissue wet weight | renal concentration, Bis-α-Methylspermine (Sg (syngenic) mice, 50 mg/kg): 459.26 pmoles/mg tissue wet weight | renal polyamine concentration, N^8-Acetylspermidine (Sg (syngenic) mice, 50 mg/kg): 21.07 ± 5.81 pmoles/mg tissue wet weight | renal polyamine concentration, Putrescine (Sg (syngenic) mice, 50 mg/kg): 98.32 pmoles/mg tissue wet weight | renal polyamine concentration, Spermidine (Sg (syngenic) mice, 50 mg/kg): 248.63 pmoles/mg tissue wet weight | renal polyamine concentration, Spermine (Sg (syngenic) mice, 50 mg/kg): 424.06 pmoles/mg tissue wet weight | hepatic concentration, Bis-α-Methylspermine [1]: 29.55 pmoles/mg tissue wet weight | hepatic polyamine concentration, N^1-Acetylspermidine [1]: 226.74 pmoles/mg tissue wet weight | hepatic polyamine concentration, N^8-Acetylspermidine [1]: 9.43 pmoles/mg tissue wet weight | hepatic polyamine concentration, Putrescine [1]: 944.38 pmoles/mg tissue wet weight | hepatic polyamine concentration, Spermidine [1]: 792.81 pmoles/mg tissue wet weight | hepatic polyamine concentration, Spermine [1]: 104.48 pmoles/mg tissue wet weight | pancreatic polyamine concentration, N^1-Acetylspermidine [1]: 267.18 pmoles/mg tissue wet weight | pancreatic polyamine concentration, Putrescine [1]: 6168.51 ± 1253.00 pmoles/mg tissue wet weight | pancreatic polyamine concentration, Spermidine [1]: 3646.27 ± 367.99 pmoles/mg tissue wet weight | pancreatic polyamine concentration, Spermine [1]: 187.07 ± 5.15 pmoles/mg tissue wet weight | renal polyamine concentration, N^1-Acetylspermidine [1]: 19.74 pmoles/mg tissue wet weight | renal polyamine concentration, N^8-Acetylspermidine [1]: 16.35 ± 1.03 pmoles/mg tissue wet weight | renal polyamine concentration, Putrescine [1]: 184.32 pmoles/mg tissue wet weight | renal polyamine concentration, Spermidine [1]: 235.80 pmoles/mg tissue wet weight | renal polyamine concentration, Spermine [1]: 739.17 pmoles/mg tissue wet weight | hepatic concentration, Bis-α-Methylspermine (Tg (transgenic) mice, 25 mg/kg): 105.83 pmoles/mg tissue wet weight | hepatic polyamine concentration, N^1-Acetylspermidine (Tg (transgenic) mice, 25 mg/kg): 219.53 pmoles/mg tissue wet weight | hepatic polyamine concentration, N^8-Acetylspermidine (Tg (transgenic) mice, 25 mg/kg): 9.03 pmoles/mg tissue wet weight | hepatic polyamine concentration, Putrescine (Tg (transgenic) mice, 25 mg/kg): 895.27 pmoles/mg tissue wet weight | hepatic polyamine concentration, Spermidine (Tg (transgenic) mice, 25 mg/kg): 673.04 pmoles/mg tissue wet weight | hepatic polyamine concentration, Spermine (Tg (transgenic) mice, 25 mg/kg): 66.74 pmoles/mg tissue wet weight | pancreatic concentration, Bis-α-Methylspermine (Tg (transgenic) mice, 25 mg/kg): 315.13 ± 82.18 pmoles/mg tissue wet weight | pancreatic polyamine concentration, N^1-Acetylspermidine (Tg (transgenic) mice, 25 mg/kg): 474.31 pmoles/mg tissue wet weight | pancreatic polyamine concentration, N^8-Acetylspermidine (Tg (transgenic) mice, 25 mg/kg): 64.06 pmoles/mg tissue wet weight | pancreatic polyamine concentration, Putrescine (Tg (transgenic) mice, 25 mg/kg): 7573.46 ± 1084.90 pmoles/mg tissue wet weight | pancreatic polyamine concentration, Spermidine (Tg (transgenic) mice, 25 mg/kg): 3389.87 ± 447.32 pmoles/mg tissue wet weight | pancreatic polyamine concentration, Spermine (Tg (transgenic) mice, 25 mg/kg): 73.43 ± 6.82 pmoles/mg tissue wet weight | renal concentration, Bis-α-Methylspermine (Tg (transgenic) mice, 25 mg/kg): 315.13 pmoles/mg tissue wet weight | renal polyamine concentration, N^1-Acetylspermidine (Tg (transgenic) mice, 25 mg/kg): 25.57 pmoles/mg tissue wet weight | renal polyamine concentration, N^8-Acetylspermidine (Tg (transgenic) mice, 25 mg/kg): 17.52 ± 3.88 pmoles/mg tissue wet weight | renal polyamine concentration, Putrescine (Tg (transgenic) mice, 25 mg/kg): 137.26 pmoles/mg tissue wet weight | renal polyamine concentration, Spermidine (Tg (transgenic) mice, 25 mg/kg): 216.59 pmoles/mg tissue wet weight | renal polyamine concentration, Spermine (Tg (transgenic) mice, 25 mg/kg): 565.06 pmoles/mg tissue wet weight | hepatic concentration, Bis-α-Methylspermine [2]: 158.82 pmoles/mg tissue wet weight | hepatic polyamine concentration, N^1-Acetylspermidine [2]: 355.10 pmoles/mg tissue wet weight | hepatic polyamine concentration, N^8-Acetylspermidine [2]: 19.03 pmoles/mg tissue wet weight | hepatic polyamine concentration, Putrescine [2]: 1032.66 pmoles/mg tissue wet weight | hepatic polyamine concentration, Spermidine [2]: 404.05 pmoles/mg tissue wet weight | hepatic polyamine concentration, Spermine [2]: 74.10 pmoles/mg tissue wet weight | pancreatic concentration, Bis-α-Methylspermine [2]: 421.62 ± 147.44 pmoles/mg tissue wet weight | pancreatic polyamine concentration, N^1-Acetylspermidine [2]: 339.96 pmoles/mg tissue wet weight | pancreatic polyamine concentration, N^8-Acetylspermidine [2]: 90.85 pmoles/mg tissue wet weight | pancreatic polyamine concentration, Putrescine [2]: 8158.57 ± 2876.94 pmoles/mg tissue wet weight | pancreatic polyamine concentration, Spermidine [2]: 2268.60 ± 1821.72 pmoles/mg tissue wet weight | pancreatic polyamine concentration, Spermine [2]: 98.77 ± 82.83 pmoles/mg tissue wet weight | renal concentration, Bis-α-Methylspermine [2]: 421.62 pmoles/mg tissue wet weight | renal polyamine concentration, N^1-Acetylspermidine [2]: 27.37 pmoles/mg tissue wet weight | renal polyamine concentration, N^8-Acetylspermidine [2]: 16.82 ± 4.23 pmoles/mg tissue wet weight | renal polyamine concentration, Putrescine [2]: 225.66 pmoles/mg tissue wet weight | renal polyamine concentration, Spermidine [2]: 185.57 pmoles/mg tissue wet weight | renal polyamine concentration, Spermine [2]: 426.59 pmoles/mg tissue wet weight | hepatic concentration, Bis-α-Methylspermine (Tg (transgenic) mice, 50 mg/kg): 300.81 pmoles/mg tissue wet weight | hepatic polyamine concentration, N^1-Acetylspermidine (Tg (transgenic) mice, 50 mg/kg): 207.30 pmoles/mg tissue wet weight | hepatic polyamine concentration, N^8-Acetylspermidine (Tg (transgenic) mice, 50 mg/kg): 19.27 pmoles/mg tissue wet weight | hepatic polyamine concentration, Putrescine (Tg (transgenic) mice, 50 mg/kg): 717.95 pmoles/mg tissue wet weight | hepatic polyamine concentration, Spermidine (Tg (transgenic) mice, 50 mg/kg): 293.21 pmoles/mg tissue wet weight | hepatic polyamine concentration, Spermine (Tg (transgenic) mice, 50 mg/kg): 69.63 pmoles/mg tissue wet weight | pancreatic concentration, Bis-α-Methylspermine (Tg (transgenic) mice, 50 mg/kg): 400.64 ± 63.85 pmoles/mg tissue wet weight | pancreatic polyamine concentration, N^1-Acetylspermidine (Tg (transgenic) mice, 50 mg/kg): 288.51 pmoles/mg tissue wet weight | pancreatic polyamine concentration, Putrescine (Tg (transgenic) mice, 50 mg/kg): 5123.85 ± 573.32 pmoles/mg tissue wet weight | pancreatic polyamine concentration, Spermidine (Tg (transgenic) mice, 50 mg/kg): 2326.21 ± 126.42 pmoles/mg tissue wet weight | pancreatic polyamine concentration, Spermine (Tg (transgenic) mice, 50 mg/kg): 119.48 ± 37.92 pmoles/mg tissue wet weight | renal concentration, Bis-α-Methylspermine (Tg (transgenic) mice, 50 mg/kg): 400.64 pmoles/mg tissue wet weight | renal polyamine concentration, N^8-Acetylspermidine (Tg (transgenic) mice, 50 mg/kg): 12.21 ± 4.20 pmoles/mg tissue wet weight | renal polyamine concentration, Putrescine (Tg (transgenic) mice, 50 mg/kg): 173.97 pmoles/mg tissue wet weight | renal polyamine concentration, Spermidine (Tg (transgenic) mice, 50 mg/kg): 204.20 pmoles/mg tissue wet weight | renal polyamine concentration, Spermine (Tg (transgenic) mice, 50 mg/kg): 481.68 pmoles/mg tissue wet weight

From patent publication US7202280B2, “Methods for the treatment and prevention of pancreatitis and for induction of liver regeneration” (priority 2002, dated 2007)
